According to the NIST ThermoML archive (doi:10.1016/j.jct.2005.05.012):
Numbers after ± are expanded uncertainties.

Assays:
[1] = refractive index (other wavelength) (dimensionless); xn = mol fraction of the nth substance listed; conditions: 305.5 K, 101 kPa, Liquid, Wavelength=632.8 nm, Newport model 1825-C
[2] = refractive index (other wavelength) (dimensionless); conditions: 101 kPa, Liquid, Wavelength=632.8 nm, Newport model 1825-C

SMILES: CCCCCCCCCCCCCCCCCC [octadecane] + N#Cc1ccccc1
- refractive index ([1]; x2 = 0.0996): 1.4316 ± 0.0002
- refractive index ([1]; x2 = 0.1986): 1.4362 ± 0.0002
- refractive index ([1]; x2 = 0.2992): 1.4398 ± 0.0002
- refractive index ([1]; x2 = 0.4025): 1.4447 ± 0.0002
- refractive index ([1]; x2 = 0.4955): 1.4499 ± 0.0002
- refractive index ([1]; x2 = 0.5947): 1.4567 ± 0.0002
- refractive index ([1]; x2 = 0.7985): 1.4777 ± 0.0002
- refractive index ([1]; x2 = 0.8876): 1.4917 ± 0.0002

SMILES: N#Cc1ccccc1 [benzonitrile]
- refractive index ([2]; 301.4 K): 1.521 ± 0.0002
- refractive index ([2]; 302.96 K): 1.5202 ± 0.0002
- refractive index ([2]; 304.8 K): 1.5194 ± 0.0002
- refractive index ([2]; 306.42 K): 1.5186 ± 0.0002
- refractive index ([2]; 307.83 K): 1.5179 ± 0.0002
- refractive index ([2]; 309.65 K): 1.517 ± 0.0002

SMILES: CCCCCCCCCCCCCCCCCC [octadecane]
- refractive index ([2]; 301.97 K): 1.4339 ± 0.0002
- refractive index ([2]; 303.42 K): 1.4333 ± 0.0002
- refractive index ([2]; 304.68 K): 1.4328 ± 0.0002
- refractive index ([2]; 306.38 K): 1.4321 ± 0.0002
- refractive index ([2]; 307.84 K): 1.4315 ± 0.0002
- refractive index ([2]; 309.28 K): 1.4307 ± 0.0002
